Structures can show the parent of a compound that is named as a salt. Where two headings read alike, the source gives them in different places.
Legend:
[1] = Conversion to Ampicillin in 40% mouse blood (bioautography); type: in vitro ADME; settings: 40% mouse blood in pH 7.4 phosphate buffer, 37° C., 10 minutes
Method: The resulting Ampicillin ester hydrochloride was incubated in 40% mouse blood in pH 7.4 phosphate buffer at 37° C. for 10 minutes, and then subjected to bioautography.

[2] = cited from earlier work
[3] = Concentration in blood in oral administration (blood Ampicillin level ratio); type: in vivo, mice (ddy)
Method: Each of the test compounds was orally administered in a dose of 50 mg/kg calculated as Ampicillin to four week old mice (ddy, body weight about 20 g, five per group) which had been caused to fast overnight (the amount is equivalent to 0.2 ml of a 5 mg/ml aqueous solution of Ampicillin). The blood was taken from the experimental animals periodically, and the concentration of Ampicillin in the serum was measured by a bioassay method. The blood Ampicillin level ratio was calculated from the following equation. [formula]

in vitro [4] = type: in vitro ADME; settings: for metabolised at 1 h / metabolised at 2 h / metabolised at 4 h / metabolised at 6 h / metabolised at 20 h: simulated gastric juice, pH 1.2
Method: Each of the test compounds was dissolved to a predetermined concentration in an acidic aqueous medium (simulated gastric juice) having a pH of 1.2 prepared by adding 2.0 g of sodium chloride, 24 ml of 10% hydrochloric acid and 3.2 g of pepsin to 1000 ml of water. While the solution was shaken at 37° C., it was periodically sampled. The sampled solution was subjected to high-speed liquid chromatography using a reversed phase partition column, and the hydrolysis ratio of the compound was determined from a decrease in the peak height of the compound in the chromatogram.

in vitro [5] = type: in vitro ADME; settings: for metabolised at 5 min / metabolised at 10 min / metabolised at 20 min / metabolised at 0.5 h / metabolised at 1 h: simulated intestinal juice, pH 7.5
Method: The procedure of (a) was repeated except that a basic aqueous medium (simulated intestinal juice) having a pH of 7.50 prepared by adding 35.8 g of disodium phosphate, 6.0 ml of 10% hydrochloric acid and 2.8 g of pancreatin to 1000 ml of water was used instead of the acidic aqueous medium.

in vivo = settings: mouse, mice, aqueous solution

Conversion to Ampicillin [1] | metabolised at 1 h (in vitro [4]) | metabolised at 2 h (in vitro [4]) | metabolised at 4 h (in vitro [4]) | metabolised at 6 h (in vitro [4]) | metabolised at 20 h (in vitro [4]) | metabolised at 5 min (in vitro [5]) | metabolised at 10 min (in vitro [5]) | metabolised at 20 min (in vitro [5]) | metabolised at 0.5 h (in vitro [5]) | metabolised at 1 h (in vitro [5]) | SMILES | other results
completely converted to Ampicillin |  |  |  |  |  |  |  |  |  |  | CC1(C)S[C@@H]2[C@H](NC(=O)[C@H](N)c3ccccc3)C(=O)N2[C@H]1C(=O)OCc1coc(=O)o1 [Ampicillin (2-oxo-1,3-dioxolen-4-yl)methyl ester hydrochloride] | 
completely converted to Ampicillin |  |  |  |  |  |  |  |  |  |  | CC1(C)S[C@@H]2[C@H](NC(=O)[C@H](N)c3ccccc3)C(=O)N2[C@H]1C(=O)OC1CCCc2oc(=O)oc21 (stereo partly shown) [Ampicillin (2,3-carbonyldioxy-2-cyclohexenyl)ester hydrochloride] | 
completely converted to Ampicillin | 7% | 15% | 20% | 28% | 52% | 16% | 32% | 48% | 65% | 80% | Cc1oc(=O)oc1COC(=O)[C@@H]1N2C(=O)[C@@H](NC(=O)[C@H](N)c3ccccc3)[C@H]2SC1(C)C [A, Ampicillin (5-methyl-2-oxo-1,3-dioxolen-4-yl)methyl ester hydrochloride] | Duration of high Ampicillin concentrations in blood [3]: maintained over a long period of time

The remaining lines, values behind:

SMILES | Conversion to Ampicillin [1] | metabolised at 1 h (in vitro [4]) | metabolised at 2 h (in vitro [4]) | metabolised at 4 h (in vitro [4]) | metabolised at 6 h (in vitro [4]) | metabolised at 20 h (in vitro [4]) | metabolised at 5 min (in vitro [5]) | metabolised at 10 min (in vitro [5]) | metabolised at 20 min (in vitro [5]) | metabolised at 0.5 h (in vitro [5]) | metabolised at 1 h (in vitro [5]) | other results
CC(C)(C)C(=O)OCOC(=O)[C@@H]1N2C(=O)[C@@H](NC(=O)[C@H](N)c3ccccc3)[C@H]2SC1(C)C [Pivampicillin, Ampicillin pivaloyloxymethyl ester] |  |  |  |  |  |  |  |  |  |  |  | Blood Ampicillin concentrations in oral vs intramuscular administration ([2]; oral administration, British Pat. Nos. 1,215,812 and 1,364,672): comparable blood Ampicillin concentrations in oral administration to those obtained by intramuscular administration
CC1(C)S[C@@H]2[C@H](NC(=O)[C@H](N)c3ccccc3)C(=O)N2[C@H]1C(=O)OCc1oc(=O)oc1-c1ccccc1 [B, Ampicillin (2-oxo-5-phenyl-1,3-dioxolen-4-yl)methyl ester hydrochloride] | completely converted to Ampicillin | 9% | 20% | 30% | 35% | 65% | 18% | 37% | 53% | 70% | 90% | Duration of high Ampicillin concentrations in blood [3]: maintained over a long period of time; Rate of hydrolysis relative to that of Ampicillin phthalidyl ester (in vitro [4]): about one half; Rate of hydrolysis relative to that of Ampicillin phthalidyl ester (in vitro [5]): about one half; LD50 (in vivo; intravenous): 270 mg/kg; LD50 (in vivo; ip, intraperitoneal): 1770 mg/kg; LD50 (in vivo; oral): > 5000 mg/kg
CC1(C)S[C@@H]2[C@H](NC(=O)[C@H](N)c3ccccc3)C(=O)N2[C@H]1C(=O)OC1OC(=O)c2ccccc21 (stereo partly shown) [Talampicillin, Ampicillin phthalidyl ester] |  |  |  |  |  |  |  |  |  |  |  | Blood Ampicillin concentrations in oral vs intramuscular administration ([2]; in vivo, po): comparable blood Ampicillin concentrations in oral administration to those obtained by intramuscular administration
CC1(C)S[C@@H]2[C@H](NC(=O)[C@H](N)c3ccccc3)C(=O)N2[C@H]1C(=O)OC1OC(=O)c2ccccc21 (stereo partly shown) [C, Ampicillin phthalidyl ester hydrochloride, reference compound] |  | 18% | 31% | 43% | 55% | 100% | 39% | 61% | 90% | 95% | 100% | 

— patent publication US4389408A, “Novel ampicillin esters and production thereof” (priority 1980, dated 1983)
